These results are taken from article PMC3997506, “Novel PPAR Pan Agonist, ZBH Ameliorates Hyperlipidemia and Insulin Resistance in High Fat Diet Induced Hyperlipidemic Hamster” (PLoS ONE, 2014).

Data set [1] relates to Kunming mice. The settings on record: stated in Introduction, no method given; cited from earlier work.
For data set [2], the target named is T1, SIRT1 (Homo sapiens, UniProt Q96EB6).
T1 construct: purchased Cayman chemical
T1 sequence (Q96EB6 1-747): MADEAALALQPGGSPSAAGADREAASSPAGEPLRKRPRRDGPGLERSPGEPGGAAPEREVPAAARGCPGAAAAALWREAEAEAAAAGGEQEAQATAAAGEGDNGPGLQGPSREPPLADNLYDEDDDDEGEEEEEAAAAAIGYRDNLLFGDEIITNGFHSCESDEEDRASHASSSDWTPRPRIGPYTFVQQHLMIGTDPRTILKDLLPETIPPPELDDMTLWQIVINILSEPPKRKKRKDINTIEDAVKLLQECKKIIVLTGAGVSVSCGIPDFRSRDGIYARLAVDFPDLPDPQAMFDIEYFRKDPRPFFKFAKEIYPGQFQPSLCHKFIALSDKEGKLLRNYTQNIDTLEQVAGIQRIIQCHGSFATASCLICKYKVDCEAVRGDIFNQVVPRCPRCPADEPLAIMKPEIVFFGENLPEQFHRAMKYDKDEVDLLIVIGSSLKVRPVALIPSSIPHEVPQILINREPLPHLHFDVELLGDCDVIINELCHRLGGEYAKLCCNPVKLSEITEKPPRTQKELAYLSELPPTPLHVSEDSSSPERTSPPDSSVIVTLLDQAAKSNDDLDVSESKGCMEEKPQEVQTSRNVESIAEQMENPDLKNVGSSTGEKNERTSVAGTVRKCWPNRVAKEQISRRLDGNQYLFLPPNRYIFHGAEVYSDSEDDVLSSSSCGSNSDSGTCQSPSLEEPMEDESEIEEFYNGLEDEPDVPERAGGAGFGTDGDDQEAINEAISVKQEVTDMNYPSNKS
Put plainly: SIRT1 enzyme activity assay (Direct Fluorescent Screening Assay kit). It is filed as biochemical. The note with it: read-out: SIRT1 maximal activation. Here is the method: SIRT1 enzyme activity was assayed with the SIRT1 Direct Fluorescent Screening Assay kit (Cayman chemical, MI, USA), according to the manufacturer’s instructions. Fluorescence was measured on an EnVision Multilabel Plate Reader (PerkinElmer, CA, USA). DMSO was used as a negative control and also as a solvent for resveratrol and ZBH.
Figure 4 Activation of SIRT1 by ZBH. SIRT1 enzyme activity was measured after treatment with ZBH and Resveratrol, and the fluorescence was tested on EnVision Multilabel Plate Reader. Values are mean±SE, n = 3.

In data set [3] the target is T2, hPPARα (Homo sapiens, UniProt Q07869).
T2 sequence (Q07869 200-468 limits assumed): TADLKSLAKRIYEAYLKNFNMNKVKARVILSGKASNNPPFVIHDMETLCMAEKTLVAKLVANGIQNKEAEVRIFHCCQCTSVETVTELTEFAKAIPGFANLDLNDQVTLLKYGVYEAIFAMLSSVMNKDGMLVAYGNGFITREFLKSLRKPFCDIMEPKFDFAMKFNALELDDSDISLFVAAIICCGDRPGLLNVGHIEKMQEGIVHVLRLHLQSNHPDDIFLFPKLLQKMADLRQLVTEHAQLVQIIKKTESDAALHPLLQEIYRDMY
Put plainly: In vitro transactivation assay, GAL4-hPPAR luciferase reporter in HEK-293 cells. It is filed as cell-based. On the procedure: (§1) Transactivation of PPARs was analyzed in a cell-based luciferase reporter assay using HEK-293 cells transiently transfected to express hPPAR-GAL4 chimeric receptors with plasmids GAL4-hPPAR α, γ, or δ, and pUAS (5x)-tk-luc receptor vector as previously described. 24 h after transfection, cells were treated with the indicated compounds, followed by the measurement of luciferase activity 24 h later. Mean values represent those obtained from at least three independent experiments performed in triplicate and normalized by the Renilla luciferase reading.
(§2) HEK-293 cells transiently transfected to express hPPAR-GAL4 chimeric receptors with plasmids GAL4-hPPAR α, γ, or δ, and pUAS (5x)-tk-luc receptor vector. 24 h after transfection, cells were treated with the indicated compounds at various concentrations followed by the measurement of luciferase activity 24 h after treatment. The results shown are the mean values obtained from at least three independent experiments performed in triplicate normalized by the Renilla luciferase reading.
Background: In a reporter assay the amount or activity of a reporter protein is the signal.

Data set [4] concerns the target T3, hPPARγ (Homo sapiens, UniProt P37231).
T3 sequence (P37231 238-505 limits assumed): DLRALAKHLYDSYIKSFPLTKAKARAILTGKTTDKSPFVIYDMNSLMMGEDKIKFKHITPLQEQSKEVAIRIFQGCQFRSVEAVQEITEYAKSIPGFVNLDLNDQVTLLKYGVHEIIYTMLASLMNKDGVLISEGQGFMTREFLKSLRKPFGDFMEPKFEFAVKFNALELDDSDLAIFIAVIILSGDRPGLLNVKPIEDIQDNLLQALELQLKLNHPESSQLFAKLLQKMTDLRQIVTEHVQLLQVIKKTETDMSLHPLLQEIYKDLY
The description is as above. The settings on record: HEK-293, 24 h treatment. It is filed as cell-based. Here is the method:
as §1, §2

The target in data set [5] is T4, hPPARδ (Homo sapiens, UniProt Q03181).
T4 sequence (Q03181 171-441 limits assumed): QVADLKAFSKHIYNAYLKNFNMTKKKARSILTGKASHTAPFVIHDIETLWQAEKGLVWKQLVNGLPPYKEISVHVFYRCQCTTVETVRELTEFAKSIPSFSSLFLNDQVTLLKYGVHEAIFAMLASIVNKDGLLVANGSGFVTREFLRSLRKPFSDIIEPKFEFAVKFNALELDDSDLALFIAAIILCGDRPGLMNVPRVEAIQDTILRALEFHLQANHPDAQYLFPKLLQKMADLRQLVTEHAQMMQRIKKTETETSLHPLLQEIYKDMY
Described as above. It is filed as cell-based. The note with it: HEK-293, 24 h treatment. On the procedure: as §1, §2

Broadly, the EC50 is the concentration needed to bring the measured effect to its halfway point. A lower EC50 goes with an effect from little substance. Take `COc1ccc(/C=C/c2cc(OC)cc(OCCCC(C)(C)C(=O)O)c2)cc1` [ZBH, (E)-5-(3-methoxy-5-(4-methoxystyryl)phenoxy) -2,2-dimethylpentanoic acid]: the “oral LD50” value in data set [1] was > 1200 mg/kg. Further, the Emax in data set [2] was 136%. In addition, in data set [3] (Discussion), the “PPARα transactivation selectivity over other PPAR subtypes (EC50 fold)” value was found to be 11 fold. Also, in data set [3] (HEK-293), the “maximal activation of PPARα” value is listed as “approximately 11 fold”. Moreover, the EC50 in data set [3] (HEK-293, 24 h treatment) is 1.75 µM; in data set [4] it was 25.4 µM; in data set [5] it was 19.2 µM. Moreover, the “PPARα activation potency (EC50) relative to bezafibrate” value in data set [3] (ZBH vs bezafibrate) is 21 fold. Further, in data set [3] (selectivity α over γ), the “PPARα activation exceeds PPARγ activation” value is 14 fold. In addition, the “PPARα activation exceeds PPARδ activation” value in data set [3] (selectivity α over δ) is given as 11 fold.
